Results taken from article PMC12300679, “Taurine-Based Hybrid Drugs as Potential Anticancer Therapeutic Agents: In Vitro, In Vivo Evaluations” (Pharmaceuticals, 2025).

Columns and labels:
[1] = Acute in vivo toxicity, single intraperitoneal administration; settings: mouse, ip, BDF1 mice, Behrens method, 14 d observation, read-out: half-lethal toxic dose (LD50)
Protocol: Firstly, acute in vivo toxicity was determined in order to calculate doses for the determination of the potential antileukemia activity. An acute toxicity study was carried out on the mice of the BDF1 line weighing from 20 to 24 g. In the experiment, clinically healthy animals were used, which were treated under the same conditions. To evaluate LD50, the toxicity gain curve was plotted against increasing doses (the Behrens method) (Figure 3).
Acute toxicity was evaluated using mice of the BDF1 line weighing from 20 to 24 g. In the experiment, clinically healthy animals treated under the same conditions were used. A total of 4–6 animals were used for each dose. All experiments on animals were carried out according to the Nursery and Vivarium, Russian Academy of Sciences Federal Research Center of Problems of Chemical Physics and Medicinal Chemistry (FRC PCPMC RAS) and in accordance with the rules established by the Commission on Bioethics of the FRC PCPMC RAS. One day after administration of the specimen, the animals were continuously treated for 4 h. Then, death of animals and clinical pattern of intoxication were evaluated once a day for 14 d. The test compounds were added intraperitoneally once. The individual volume of each animal was calculated from the mass of the body and dose of the test compound.
The lethal dose (LD100) for all animals and the maximum tolerable dose (MTD) values were also evaluated. Results of the studies are given in the form of tables and graphs.

[2] = test system: HuTu 80 human duodenal adenocarcinoma cells; test: MTT cytotoxicity assay, HuTu 80; assay type: cell-based; settings: for IC50: Homo sapiens, HuTu80, MTT, tested at 1–200 µM, three independent experiments; for SI (selectivity index) HuTu 80: HuTu 80 versus normal WI38 cells
[3] = test system: WI38 human fibroblast cell line; test: MTT cytotoxicity assay, normal WI38 cells; assay type: cell-based; settings: WI-38, tested at 1–200 µM, three independent experiments
[4] = test system: RPMI 1788 human healthy donor peripheral blood leukocytes; test: MTT cytotoxicity assay, normal RPMI 1788 cells; assay type: cell-based; settings: tested at 1–200 µM, three independent experiments, read-out: IC50 RPMI 1788 (normal cell line)
[5] = test system: M-HeLa human cervix carcinoma cells; test: MTT cytotoxicity assay, M-HeLa; assay type: cell-based; settings: for IC50: Homo sapiens, M-HeLa, tested at 1–200 µM, three independent experiments; for SI (selectivity index) M-HeLa: M-HeLa versus normal WI38 cells
[6] = test system: HL-60 human promyelocytic leukemia cells; test: MTT cytotoxicity assay, HL-60; assay type: cell-based; settings: for IC50: Homo sapiens, HL-60, MTT, tested at 1–200 µM, three independent experiments
[7] = test system: lymphatic leukemia P388; test: Antitumor activity, syngeneic lymphatic leukemia P388 in BDF1 mice; assay type: in vivo, mouse; settings: for ILS / MST ± SD: i.p. days 1, 5, 9; for antileukemia / antitumor effect (in words): doses under study, i.p.
Protocol: At the next stage, we evaluated them in vivo using syngeneic mouse leukosis P388, which plays an important role in the screening of potential antitumor agents. The antitumor effect of the synthesized compounds was evaluated according to the increase in the average lifespan (ILS, %) of tumor-bearing animals. Due to the fact that physiologically relevant solvent, such as water or physiological solution [49], can be used as a solvent for parenteral administration of substances, we chose only water-soluble compounds 4o–r for the in vivo study.
As model tumors for the determination of antitumor activity of phosphorus-containing derivatives of pyrrolidine, the strain of lymphatic leukemia P388 was chosen. Lymphatic leukemia P388 was transplanted into hybrid mice of the BDF1 line intraperitoneally in accordance with the standard procedure. The inoculum contained 10^6 tumor cells in isotonic solution of NaCl. […] In each experiment, the control group was represented by the cohort of animals with tumors not treated with the compounds. Each group consisted of six mice. The animals were inspected daily over at least 60 days. The effectiveness of therapy was evaluated by the number of surviving animals, as well as by the increase in the average lifespan (ILS%), which was evaluated as the percentage of the mean survival time (MST) of the treated group (t) as compared to the control group (c): […].

[8] = dose 12 (table prints no unit; b71 mg/kg)
[9] = dose 17 (table prints no unit; b71 mg/kg)
[10] = dose 27 (table prints no unit; b71 mg/kg)
[11] = dose 38 (table prints no unit; b71 mg/kg)
[12] = dose 57 (table prints no unit; b71 mg/kg)
[13] = dose 16 (table prints no unit; b71 mg/kg)
[14] = dose 22 (table prints no unit; b71 mg/kg)
[15] = dose 34 (table prints no unit; b71 mg/kg)
[16] = dose 48 (table prints no unit; b71 mg/kg)
[17] = dose 72 (table prints no unit; b71 mg/kg)
[18] = dose 10 (table prints no unit; b71 mg/kg)
[19] = dose 15 (table prints no unit; b71 mg/kg)
[20] = dose 31 (table prints no unit; b71 mg/kg)
[21] = dose 47 (table prints no unit; b71 mg/kg)

Compound | LD50 at 14 d [1] [mg/kg] | IC50 [2] [µM] | IC50 [3] [µM] | IC50 [4] [µM] | IC50 ([5]; MTT) [µM] | IC50 [6] [µM] | antileukemia / antitumor effect (in words) [7] | SI (selectivity index) HuTu 80 [2] | SI (selectivity index) M-HeLa [5] | ILS [7, 14] [%] | MST ± SD [7, 14] [days] | further results
Cl.O=P(c1ccccc1)(c1ccccc1)C1CCCN1S(=O)(=O)CCN1CCCC1 (stereo not drawn) [Compound 4q, 1-(2-((2-(Diphenylphosphoryl)pyrrolidin-1-yl)sulfonyl)ethyl)pyrrolidin-1-ium chloride] | 215 ± 16.7 | > 100 | > 100 | > 100 | > 100 | > 100 | exhibited antileukemia activity |  |  |  |  | ILS [7, 8]: −9%; MST ± SD [7, 8]: 8.3 ± 0.6 days; ILS [7, 9]: 13%; MST ± SD [7, 9]: 10.3 ± 0.9 days; ILS [7, 10]: 33%; MST ± SD [7, 10]: 12.2 ± 1.7 days; ILS [7, 11]: 69%; MST ± SD [7, 11]: 15.5 ± 3.9 days; ILS [7, 12]: 11%; MST ± SD [7, 12]: 10.2 ± 0.2 days
CCCCN(CCCC)CCS(=O)(=O)N1CCCC1P(=O)(c1ccccc1)c1ccccc1.Cl (stereo not drawn) [Compound 4p, N-Butyl-N-(2-((2-(diphenylphosphoryl)pyrrolidin-1-yl)sulfonyl)ethyl)butan-1-aminium chloride] | 165 ± 18.2 | 94.4 ± 8.7 | 63.2 ± 5.7 | 176 ± 3.4 | 57 ± 4.6 | 76.7 ± 6.1 | exhibited antileukemia activity | - ((-)—no selectivity) | 1.1 | 80 | 18 ± 3.2 | cytotoxicity against M-HeLa (in words) ([5]; MTT): moderate cytotoxicity; SI (selectivity index) HL-60 ([6]; HL-60 versus normal RPMI 1788 leukocytes): 2.3; ILS [7, 13]: 100%; MST ± SD [7, 13]: 20 ± 3.1 days; ILS [7, 15]: 75%; MST ± SD [7, 15]: 17.5 ± 2.7 days; ILS [7, 16]: 55%; MST ± SD [7, 16]: 15.5 ± 3.4 days; ILS [7, 17]: 42%; MST ± SD [7, 17]: 14.2 ± 2.4 days
Cl.O=P(c1ccccc1)(c1ccccc1)C1CCCN1S(=O)(=O)CCN1CCCCC1 (stereo not drawn) [Compound 4r, 1-(2-((2-(Diphenylphosphoryl)pyrrolidin-1-yl)sulfonyl)ethyl)piperidin-1-ium chloride] | 170 ± 12.1 | 97.3 ± 8.2 | > 100 | > 100 | 96 ± 8.6 | > 100 | did not display antitumor effect | >1 | >1 | 4 | 11.2 ± 0.8 | ILS [7, 18]: −9%; MST ± SD [7, 18]: 9.8 ± 0.2 days; ILS [7, 19]: −2%; MST ± SD [7, 19]: 10.5 ± 0.8 days; ILS [7, 20]: 0%; MST ± SD [7, 20]: 10.8 ± 0.7 days; ILS [7, 21]: −1%; MST ± SD [7, 21]: 10.7 ± 0.8 days
